Entries after “also recorded” stand apart in the source; their conditions may differ.
Tests used:
SOD1 mutant mice [1] = assay: Oxidative stress biomarkers (LH, MDA, NT immunoreactivity) in eye tissue of SOD1 mutant mice after eye drop treatment; format: in vivo, mouse; details: eye drops 40 mM TAPP1 in 45% β-cyclodextrin, one drop per day, 30 treatments over 6 weeks, versus vehicle
Source text: FIG. 9. TAPP1 reduces oxidative stress in SOD1 mutant mice. The evolution of oxidative stress and retinal pathology in SOD1 mutant mice, is preceded by the formation of lipid hydroperoxides (LH), and conjugates of malondialdehyde (MDA) and nitrotyrosine (NT). These conjugates are detected in situ using appropriate monoclonal antibodies. To determine the therapeutic efficacy of the TAPP compositions in vivo, we probed fixed sections of eye tissues for these biomarkers following treatment with either TAPP1 (eye drop formulation containing 40 mM TAPP1 in 45% β-cyclodextrin) or the TAPP1 vehicle (β-cyclodextrin alone). Mice (aged 3 months) were treated with one drop per day, 5 treatments per week for 6 weeks, for a total of 30 treatments. In these studies, areas of increased light intensity indicate increased amounts of LH, MDA or NT in the tissue sections.
A mouse which lacks, or is deficient in, the superoxide dismutase 1 (SOD1) enzyme, is used as a model of oxidative stress. Previous investigations have shown that the SOD1-deficient mouse manifests a phenotype which is consistent with age-related macular degeneration (i.e., formation of drusen, thickening of Bruch's membrane and choroidal neovascularization; Imamura, et. al, Proc Natl Acad Sci, 103: 11282-11287, 2006). Following examination of appropriate biomarkers of oxidative stress, the SOD mutant mice are treated with an eye drop formulation containing 40 mM TAPP1 in β-cyclodextrin. The treatment protocol is one drop per day, 5 treatments per week for 6 weeks, for a total of 30 treatments. SOD mutant mice in the control group receive only the TAPP1 vehicle. Following the treatment regime, mice are sacrificed and eyeglobes are enucleated, fixed and prepared for histological examination. The presence of oxidative stress biomarkers (lipid hydroperoxides, LH; malondialdehyde, MDA; and nitrotyrosine, NT) in the tissue sections were evaluated by immunohistochemistry (FIG. 9). […]

SOD1 mutant mice [2] = assay: Fluorescein angiography: hypopigmentation and integrity of retinal vessels in SOD1 mutant mice; format: in vivo, mouse
Protocol: FIG. 10. TAPP1 improves integrity of retinal vessels in SOD1 mutant mice. A late stage pathology which has been documented in SOD1 mutant mice is choroidal neovascularization (CNV). This pathology is detected by fluorescein angiography. In this technique, a fluorescent dye (fluorescein) is injected into mice and the flow of this dye through vessels of the retina is monitored using a specialized fundus camera. Leakage of the dye outside the retinal vessels indicates compromised vessel integrity and/or CNV. SOD1 mutant mice (aged 6 months) which have been administered the TAPP1 vehicle (treatment protocol is described above) show a prominent area of dye leakage in the area surrounding the optic disc (indicated by arrow).
A Zeiss FF3 fundus camera with a camera back containing a barrier filter for fluorescein angiography (FA) is used. Animals are placed in a restraint built onto the fundus camera and injected with 25% sodium fluorescein (0.01 ml in sterile saline per 5-6 gm of body weight, i.p.). Immediately following the injection, a timer on the camera back is engaged so that elapsed time in seconds is recorded for each picture. The fluorescein images are recorded on Fujichrome Velvia RVP 100 color slide film.

**Q.** Which results are given for CC1(C)CC(OC(=O)c2cc(-c3ccncc3)n[nH]2)CC(C)(C)N1[O] [TAPP1, 1-oxyl-2,2,6,6-tetramethylpiperidin-4-yl 3-(pyridin-4-yl)-1H-pyrazole-5-carboxylate]?
**A.** lipid hydroperoxide (LH) immunoreactivity in ocular tissue (SOD1 mutant mice [1]): significantly reduced; malondialdehyde (MDA) immunoreactivity in ocular tissue (SOD1 mutant mice [1]): significantly reduced; nitrotyrosine (NT) immunoreactivity in ocular tissue (SOD1 mutant mice [1]): significantly reduced; fluorescein dye leakage around the optic disc (integrity of retinal vessels) (SOD1 mutant mice [2]; SOD1 mutant mice aged 6 months, TAPP1 eye drops versus vehicle): no dye leakage; also recorded: reduced dye leakage; severity of hypopigmentation (SOD1 mutant mice [2]; SOD mutant mice aged 186 days, TAPP1 eye drops): reduces the severity of hypopigmentation

Reference: patent publication US20090253745A1, “MODULATORS OF OCULAR OXIDATIVE STRESS” (SIRION THERAPEUTICS, INC., priority 2007, published 2009)
